Each structure is given as a SMILES string.

We go through eight compounds from US12012401B2, “Process for preparing N-(5-(3-(7-(3-fluorophenyl)-3H-imidazo[4,5-c]pyridin-2-yl)-1H-indazol-5-yl)pyridin-3-yl)-3-methylbutanamide” (BioSplice Therapeutics, Inc., priority 2016, dated 2024).

Holding throughout (assay type): physicochemical
A short description of series [1]: Form conversion on exposure to relative humidity / air (XRD). To be noted: for XRD after exposure to air overnight: exposed to air overnight. As for the experimental part:
The hydrate lost its water below 30% RH.
Solvates 1 and 2 solids were exposed to air overnight, and then analyzed by XRD. After the analysis, the solids were dried at 50° C. under vacuum, and then analyzed by XRD again.

The nature of series [2]: Form conversion on drying (XRD). As to conditions: for XRD after drying at 50° C. under vacuum: after air exposure overnight, dried at 50° C. under vacuum. As for the experimental part: The Form 1 solid was dried at 75° C. under vacuum overnight, and XRD, DSC, and TGA scans were performed. […] However, the DSC scans indicated the absence of endotherm. The loss of the early peak on the DSC scan had no effect on the XRD trace, showing that the endotherm between 50-100° C. on DSC scan was due to the free solvent. The purity of the Form 13 sample was 98.8%; the KF of an undried Form 13 sample was 35.7%. […] Solvates 1 and 2 solids were exposed to air overnight, and then analyzed by XRD. After the analysis, the solids were dried at 50° C. under vacuum, and then analyzed by XRD again.

Series [3] can be described thus: Dynamic vapor sorption (DVS) scan. As to conditions: for water absorption (DVS scan): at 90% RH. The source says: The purity of the Form 13 sample was 98.8%; the KF of an undried Form 13 sample was 35.7%.
Series [4] is described as follows: Heating in DSC chamber, then XRD scan (form conversion). As for the experimental part:
The Form 1 solid was heated in a DSC chamber to 305° C. (past the endotherm/exotherm around 280° C.), and then scanned by XRD. […] Thus, the endotherm/exotherm around 280° C. might be due to melting/crystallization events.
The Form 2 solid was heated in a DSC machine to 90° C. (past the endotherm between 50-100° C.); to 270° C. (past the endotherm/exotherm around 240° C.); and finally to 330° C. (past the exotherm […]). The residual solid was analyzed by XRD. […] The endotherm between 50-100° C. might be free solvent or hydrate. […] Thus, the exotherm around 290° C. was a re-crystallization event. According to an XRD and DSC overlay, the behavior of Form 2* was similar to Form 2.
Form 13 solid was heated in a DSC chamber to 170° C. (past the endotherm between 50-100° C.), and then scanned by XRD. […] It can be concluded that the endotherm between 50-100° C. is due to bonded water.
Form 13 solid was heated in a DSC chamber to 330° C. (past the endotherm/exotherm around 300° C.), and then scanned by XRD. […] It can be concluded that the endotherm/exotherm is due to melting/crystallization events.

Series [5] can be described thus: Competitive reslurry experiments between polymorph forms (thermodynamic stability). To be noted: 3-5 days. As for the experimental part:
In order to find out the thermodynamic stability between the different forms, several competitive reslurry experiments were carried out. Form 1, Form 2, Form 2*, Form 3, Form 4, Form 4*, Form 4**, Form 5, Form 7, Form 8, Form 9, Form 10, Form 11, Form 11*, and Form 13 (10 mg for each) were mixed and slurried in 2 mL of solvent at both RT and 50° C. The solids were slurried for 3-5 days and then analyzed by XRD.

Series [6] is described as follows: Competitive reslurry of Form 1, Form 9 and Form 13 (stability of Form 13 vs Form 9). As to conditions: toluene, IPAc, n-butyl acetate; 3 days at RT and 50° C. As for the experimental part:
In order to find out the thermodynamic stability between Form 13 and Form 9, several competitive reslurry experiments were carried out. 15 mg of Form 1, Form 9 and Form 13 solids were mixed in 1 mL of toluene, IPAc, and n-butyl acetate, and slurried for 3 days at RT and 50° C.
The residual solid was analyzed by XRD.

Series [7] is described as follows: Reslurry experiments in various solvents (polymorph screen). As for the experimental part:
Reslurry experiments in various solvents were performed. Approximately 30-80 mg of the starting solid (a non-stoichiometric hydrate of Form 1 having between 1% and about 20% by weight water) was slurried in 39 different solvents (pure and binary solvents; the ratio of organic solvent/water (V/V) was 95%/5%) at RT and 50° C. for 5 days. Three solvates, one non-stoichiometric hydrate, and eleven non-solvated forms were identified. […] XRD of both wet and dry samples were scanned (FIG. 12A (dry sample)).

Where [8] appears, read: Acetontrile/water (5% water), RT.
Setting [9] is: n-Butyl acetate/water (5% water), RT.

For the compound `CC(C)CC(=O)Nc1cncc(-c2ccc3[nH]nc(-c4nc5c(-c6cccc(F)c6)cncc5[nH]4)c3c2)c1` [non-stoichiometric hydrate of Form 1, N-(5-(3-(7-(3-fluorophenyl)-3H-imidazo[4,5-c]pyridin-2-yl)-1H-indazol-5-yl)pyridin-3-yl)-3-methylbutanamide], the “RH below which the hydrate lost its water” value in series [1] (RH) is “below 30 % RH”.

On to `CC(C)CC(=O)Nc1cncc(-c2ccc3[nH]nc(-c4nc5c(-c6cccc(F)c6)cncc5[nH]4)c3c2)c1` [Form 1, N-(5-(3-(7-(3-fluorophenyl)-3H-imidazo[4,5-c]pyridin-2-yl)-1H-indazol-5-yl)pyridin-3-yl)-3-methylbutanamide], for which, in series [1] (exposed to air), the “form change when exposed to air” value is listed as “converted to a non-stoichiometric hydrate of Form 1”. In addition, the “change of XRD scan after drying” value in series [2] (dried at 75° C. under vacuum overnight) is recorded as “no change”. The “water absorption (DVS scan)” value in series [3] is reported as 17%. Moreover, the “form after heating (XRD)” value in series [4] (heated in a DSC chamber to 305° C.) was “converted to Form 9”.

Take `CC(C)CC(=O)Nc1cncc(-c2ccc3[nH]nc(-c4nc5c(-c6cccc(F)c6)cncc5[nH]4)c3c2)c1` [Solvate 2, N-(5-(3-(7-(3-fluorophenyl)-3H-imidazo[4,5-c]pyridin-2-yl)-1H-indazol-5-yl)pyridin-3-yl)-3-methylbutanamide]: the “XRD after exposure to air overnight” value in series [1] is “changed a little”. For the same compound, the “XRD after drying at 50° C. under vacuum” value in series [2] is listed as “remained the same”.

On to `CC(C)CC(=O)Nc1cncc(-c2ccc3[nH]nc(-c4nc5c(-c6cccc(F)c6)cncc5[nH]4)c3c2)c1` [Form 2, N-(5-(3-(7-(3-fluorophenyl)-3H-imidazo[4,5-c]pyridin-2-yl)-1H-indazol-5-yl)pyridin-3-yl)-3-methylbutanamide], for which the “thermodynamic stability in competitive reslurry” value in series [5] (MeOH, EtOH, and acetone system at both RT and 50° C.) is reported as “most stable form”. The “form after heating (XRD)” value is reported as “did not change” in series [4] (heated in a DSC machine to 90° C.), “converted to low crystalline solids” in series [4] (heated in a DSC machine to 270° C.) and “converted to Form 9” in series [4] (heated to 330° C.).

Regarding `CC(C)CC(=O)Nc1cncc(-c2ccc3[nH]nc(-c4nc5c(-c6cccc(F)c6)cncc5[nH]4)c3c2)c1` [Form 9, N-(5-(3-(7-(3-fluorophenyl)-3H-imidazo[4,5-c]pyridin-2-yl)-1H-indazol-5-yl)pyridin-3-yl)-3-methylbutanamide], the “thermodynamic stability between Form 13 and Form 9” value in series [6] was “difficult to tell which one was more stable”. In series [3] (DVS scan), the “form before and after the DVS scan” value is recorded as “did not change its form”. In addition, in series [3], the “water absorption (DVS scan)” value came out at 0.8%.

For `CC(C)CC(=O)Nc1cncc(-c2ccc3[nH]nc(-c4nc5c(-c6cccc(F)c6)cncc5[nH]4)c3c2)c1` [Form 4, N-(5-(3-(7-(3-fluorophenyl)-3H-imidazo[4,5-c]pyridin-2-yl)-1H-indazol-5-yl)pyridin-3-yl)-3-methylbutanamide], the “thermodynamic stability in competitive reslurry” value in series [5] (EA at RT and 50° C.) was “most stable”.

With `CC(C)CC(=O)Nc1cncc(-c2ccc3[nH]nc(-c4nc5c(-c6cccc(F)c6)cncc5[nH]4)c3c2)c1` [Solvate 1, N-(5-(3-(7-(3-fluorophenyl)-3H-imidazo[4,5-c]pyridin-2-yl)-1H-indazol-5-yl)pyridin-3-yl)-3-methylbutanamide], the “XRD after exposure to air overnight” value in series [1] was “converted to low crystallinity”. Also, the “XRD after drying at 50° C. under vacuum” value in series [2] is “still a low crystallinity solid”.

`CC(C)CC(=O)Nc1cncc(-c2ccc3[nH]nc(-c4nc5c(-c6cccc(F)c6)cncc5[nH]4)c3c2)c1` [Form 12, N-(5-(3-(7-(3-fluorophenyl)-3H-imidazo[4,5-c]pyridin-2-yl)-1H-indazol-5-yl)pyridin-3-yl)-3-methylbutanamide]: the “Form; Dry” value in series [7] (setting [8]) is reported as “Form 1”; in series [7] (EA/water (5% water), RT) it was “Form 1”; in series [7] (Heptane/water (5% water), RT), “Form 12”; in series [7] (IPAc/water (5% water), RT), “Form 1”; in series [7] (MA/water (5% water), 50° C.), “Form 4”; in series [7] (MIBK/water (5% water), RT) it was “Form 1”. Besides, the “Form; Dry” value in series [7] (MeOH/water (5% water), RT) was “Form 1”; in series [7] (MtBE/water (5% water), RT), “Form 1”; in series [7] (setting [9]), “Form 12”. Further, the “Form; Wet” value in series [7] (setting [8]) is given as “Form 12”; in series [7] (EA/water (5% water), RT), “Form 12”; in series [7] (Heptane/water (5% water), RT) it was “Form 13”; in series [7] (IPAc/water (5% water), RT) it was “Form 12”; in series [7] (MA/water (5% water), 50° C.), “Form 12”; in series [7] (MIBK/water (5% water), RT) it was “Form 12”. Also, the “Form; Wet” value in series [7] (MeOH/water (5% water), RT) is recorded as “Form 12”; in series [7] (MtBE/water (5% water), RT), “Form 12”; in series [7] (setting [9]), “Form 13”.
